In patent US8222284B2, “Stable formulations of thiadiazole derivative” (Eli Lilly and Company, priority 2007, dated 2012):

What was measured:
Type in all cases: physicochemical
[1] = Lyophilized stability study (10 mM tartrate buffer pH 3, lyophilized and stored), chiral conversion
Description: (§1) Stability for N-{4-(2,2-dimethyl-propionyl)-(5R)-5-[(2-ethylamino-ethanesulfonylamino)-methyl]-5-phenyl-4.5-dihydro-[1,3,4]thiadiazol-2-yl}-2,2-dimethyl-propionamide (the compound) is assessed at 0.1 mg/mL in various buffers adjusted from pH 2 through 8 with various pH adjusting agents (e.g. 0.1 and 1 N HCl; 0.1, 1, and 5 N NaOH) and at different storage conditions (e.g. 5° C., 25° C., and 40° C. at 75% relative humidity). Hereinafter, the 40° C. at 75% relative humidity storage condition will be referred to as 40° C. These buffers include 10 mM and 50 mM tartrate (40° C.), 10 mM phosphate (25 and 40° C.), 50 mM phosphate (40° C.), and 10 mM citrate (25 and 40° C. Additional solution stability studies include 10 mM citrate (pH 8; 5° C., 25° C., and 40° C.) and 10 mM NaCl, 10 mM sodium sulfate, 10 mM mesylate, 10 mM tartrate, 10 mM phosphate, and 10 mM citrate (pH 8, 40° C). Lyophilized stability studies for N-{4-(2,2-dimethyl-propionyl)-(5R)-5-[(2-ethylamino-ethanesulfonylamino)-methyl]-5-phenyl-4,5-dihydro-[1,3,4]thiadiazol-2-yl}- 2-dimethyl-propionamide involve solutions containing 10 mM tartrate buffer at pH 3 which are lyophilized and subjected to storage at 5° C., 25° C., and 40 ° C. for 1, 3, and 6 months. Finally, the enantiomeric stability for N-{4-(2,2-dimethyl-propionyl)-(5R)-5-[(2-ethylamino-ethanesulfonylamino-methyl]-5-phenyl-4,5-dihydro-[1,3,4]thiadiazol-2-yl}-2,2-dimethyl-propionamide is assessed when dissolved in various organic solvents and aqueous/solvent mixtures, including methanol, ethanol, acetonitrile, acetone, ethyl acetate, and 50% ethanol/50% water (all at 25° C. and 40° C.) and in 1-octanol (25° C.).
(§2) The enantiomeric stability is measured with a chiral HPLC assay employing polar ionic separation conditions. Those conditions include Column: Chirobiotic T, 150×4.6 mm; Detector UV, 290 nm; Flow: 0.225-0.35 mL/min., adjust to optimize chiral separation; injection: 2 μL-10 μL; Column Temperature: 45° C.; Mobile Phase: 0.01% TEA, 1.0% HOAc, 1.0% water (DIW) in methanol. Enantioselectivity is very sensitive to mobile phase composition, specifically the acid:base ratio. For this reason, the TEA and HOAc additives are accurately measured and then delivered by pipette into the mobile phase while stirring.

[2] = Enantiomeric (chiral) stability of the compound in buffer solutions, chiral HPLC assay
Description: as §1, §2

[3] = Enantiomeric stability when dissolved in organic solvents and aqueous/solvent mixtures
Description: as §1
The enantiomeric stability is measured with a chiral HPLC assay employing polar ionic separation conditions. […] For this reason, the TEA and HOAc additives are accurately measured and then delivered by pipette into the mobile phase while stirring.

## CCNCCS(=O)(=O)NC[C@@]1(c2ccccc2)SC(NC(=O)C(C)(C)C)=NN1C(=O)C(C)(C)C [the compound, N-{4-(2,2-dimethyl-propionyl)-(5R)-5-[(2-ethylamino-ethanesulfonylamino)-methyl]-5-phenyl-4,5-dihydro-[1,3,4]thiadiazol-2-yl}-2,2-dimethyl-propionamide]
[1]; lyophilized formulation pH 3.0, 1 month, 5° C.
  chiral conversion of the compound: no chiral conversion
[1]; lyophilized formulation pH 3.0, 1 month, 25° C.
  chiral conversion of the compound: no chiral conversion
[1]; lyophilized formulation pH 3.0, 1 month, 40° C. (75% relative humidity)
  chiral conversion of the compound: no chiral conversion
[1]; lyophilized formulation pH 3.0, 3 months, 5° C.
  chiral conversion of the compound: no chiral conversion
[1]; lyophilized formulation pH 3.0, 3 months, 25° C.
  chiral conversion of the compound: no chiral conversion
[1]; lyophilized formulation pH 3.0, 3 months, 40° C. (75% relative humidity)
  chiral conversion of the compound: no chiral conversion
[1]; lyophilized formulation pH 3.0, 6 months, 5° C.
  chiral conversion of the compound: no chiral conversion
[1]; lyophilized formulation pH 3.0, 6 months, 25° C.
  chiral conversion of the compound: no chiral conversion
[1]; lyophilized formulation pH 3.0, 6 months, 40° C. (75% relative humidity)
  chiral conversion of the compound: no chiral conversion
[2]; 10 mM citrate buffer, pH 2.1, at least 96 hours, 40° C.
  chiral conversion of the compound: no chiral conversion
[2]; 10 mM citrate buffer, pH 2.1, at least 120 hours, 25° C.
  chiral conversion of the compound: no chiral conversion
[2]; 10 mM citrate buffer, pH 3.3, at least 96 hours, 40° C.
  chiral conversion of the compound: no chiral conversion
[2]; 10 mM citrate buffer, pH 3.3, at least 120 hours, 25° C.
  chiral conversion of the compound: no chiral conversion
[2]; 10 mM citrate buffer, pH 4.2, at least 96 hours, 40° C.
  chiral conversion of the compound: no chiral conversion
[2]; 10 mM citrate buffer, pH 4.2, at least 120 hours, 25° C.
  chiral conversion of the compound: no chiral conversion
[2]; 10 mM citrate buffer, pH 8.4, 24 hours, 25° C.
  % of the compound remains: 95.8%
[2]; 10 mM citrate buffer, pH 8.4, 120 hours, 5° C.
  % of the compound remains: 99.3%
[2]; 10 mM sodium phosphate buffer, pH 2.3, at least 120 hours, 25° C.
  chiral conversion of the compound: no chiral conversion
[2]; 10 mM sodium phosphate buffer, pH 2.3, at least 120 hours, 40° C.
  chiral conversion of the compound: no chiral conversion
[2]; 10 mM sodium phosphate buffer, pH 3.4, at least 120 hours, 25° C.
  chiral conversion of the compound: no chiral conversion
[2]; 10 mM sodium phosphate buffer, pH 3.4, at least 120 hours, 40° C.
  chiral conversion of the compound: no chiral conversion
[2]; 10 mM sodium phosphate buffer, pH 5.4, at least 120 hours, 25° C.
  chiral conversion of the compound: no chiral conversion
[2]; 10 mM sodium phosphate buffer, pH 5.4, at least 120 hours, 40° C.
  chiral conversion of the compound: no chiral conversion
[2]; 10 mM tartrate buffer, pH 2.1, at least 96 hours, 40° C., 0.1 mg/mL
  chiral conversion of the compound: no chiral conversion
[2]; 10 mM tartrate buffer, pH 3.1, at least 96 hours, 40° C., 0.1 mg/mL
  chiral conversion of the compound: no chiral conversion
[2]; 10 mM tartrate buffer, pH 4,1, at least 96 hours, 40° C., 0.1 mg/mL
  chiral conversion of the compound: no chiral conversion
[2]; 10 mM tartrate buffer, pH 6.2, 96 hours, 40° C.
  % of the compound remains: 97.5%
[2]; 10 mM tartrate buffer, pH 8.7, 96 hours, 40° C.
  % of the compound remains: 60.3%
[2]; 50 mM phosphate buffer, pH 2.2, at least 96 hours, 40° C.
  chiral conversion of the compound: no chiral conversion
[2]; 50 mM phosphate buffer, pH 3.3, at least 96 hours, 40° C.
  chiral conversion of the compound: no chiral conversion
[2]; 50 mM phosphate buffer, pH 5.0, at least 96 hours, 40° C.
  chiral conversion of the compound: no chiral conversion
[2]; 50 mM tartrate buffer, pH 2.0, at least 120 hours, 40° C., 0.1 mg/mL
  chiral conversion of the compound: no chiral conversion
[2]; 50 mM tartrate buffer, pH 2.9, at least 120 hours, 40° C., 0.1 mg/mL
  chiral conversion of the compound: no chiral conversion
[2]; 50 mM tartrate buffer, pH 3.9, at least 120 hours, 40° C., 0.1 mg/mL
  chiral conversion of the compound: no chiral conversion
[2]; citrate buffer, pH 6.2, 96 hours, 40° C.
  % of the compound remains: 98.2%
[2]; citrate buffer, pH 6.2, 120 hours, 25° C.
  % of the compound remains: 99.9%
[3]; in 50% ethanol/50% water (25° C. and 40° C.)
  stability / conversion to the S enantiomeric form, compared with the other solvents tested: less stable
[3]; in acetonitrile (25° C. and 40° C.)
  stability / conversion to the S enantiomeric form, compared with the other solvents tested: less stable
[3]; in ethyl acetate (25° C. and 40° C.)
  stability / conversion to the S enantiomeric form, compared with the other solvents tested: less stable
